Assay results from patent publication US9682925B2, “Cyclopropaneamine compound” (TAKEDA PHARMACEUTICAL COMPANY LIMITED, priority 2011, dated 2017).
Structures can show the parent of a compound that is named as a salt.

Columns and labels:
Assay type in all cases: biochemical
[1] = biological target: T1, human LSD1(171-852) (Homo sapiens, UniProt O60341); experiment: Measurement of LSD1 inhibitory activity (time-resolved fluorescence, biotin-histone H3 mono methylated K4 peptide); conditions: read-out: LSD1 IC50 value
T1 construct: to give hLSD1(171-852) purified product; made in house; host or cells: Escherichia coli C43(DE3) pLysS

[2] = biological target: T2, MAO-B (Homo sapiens, UniProt P27338); experiment: Measurement of MAO-B inhibitory activity (MAO-Glo Assay)
T2 construct: purchased Sigma-Aldrich Co. LLC
T2 sequence (P27338 1-520): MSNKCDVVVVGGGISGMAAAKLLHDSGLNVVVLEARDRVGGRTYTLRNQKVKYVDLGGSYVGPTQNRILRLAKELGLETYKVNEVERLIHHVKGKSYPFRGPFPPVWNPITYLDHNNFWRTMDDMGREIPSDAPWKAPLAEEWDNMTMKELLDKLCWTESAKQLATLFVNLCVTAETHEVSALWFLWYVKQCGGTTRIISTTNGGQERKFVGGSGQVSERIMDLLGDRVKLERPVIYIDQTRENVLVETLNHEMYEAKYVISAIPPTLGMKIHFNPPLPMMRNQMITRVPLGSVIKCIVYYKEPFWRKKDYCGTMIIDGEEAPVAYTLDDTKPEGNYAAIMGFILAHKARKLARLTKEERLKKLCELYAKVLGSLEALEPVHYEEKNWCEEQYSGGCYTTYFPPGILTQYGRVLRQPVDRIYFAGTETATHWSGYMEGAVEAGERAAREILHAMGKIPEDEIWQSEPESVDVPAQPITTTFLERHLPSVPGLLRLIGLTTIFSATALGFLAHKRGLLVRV
How it was run: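 Percent inhibition was calculated from luciferin-based luminescence, corrected with a blank lacking enzyme and a control lacking compound. The reaction ran 60 min at room temperature after adding MAO substrate (16 µM as added). This followed a 10 min compound–enzyme preincubation in HEPES pH 7.5 buffer.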

[3] = biological target: T3, MAO-A (Homo sapiens, UniProt P21397); experiment: Measurement of MAO-A inhibitory activity (MAO-Glo Assay)
T3 construct: purchased Sigma-Aldrich Co. LLC
T3 sequence (P21397 1-527): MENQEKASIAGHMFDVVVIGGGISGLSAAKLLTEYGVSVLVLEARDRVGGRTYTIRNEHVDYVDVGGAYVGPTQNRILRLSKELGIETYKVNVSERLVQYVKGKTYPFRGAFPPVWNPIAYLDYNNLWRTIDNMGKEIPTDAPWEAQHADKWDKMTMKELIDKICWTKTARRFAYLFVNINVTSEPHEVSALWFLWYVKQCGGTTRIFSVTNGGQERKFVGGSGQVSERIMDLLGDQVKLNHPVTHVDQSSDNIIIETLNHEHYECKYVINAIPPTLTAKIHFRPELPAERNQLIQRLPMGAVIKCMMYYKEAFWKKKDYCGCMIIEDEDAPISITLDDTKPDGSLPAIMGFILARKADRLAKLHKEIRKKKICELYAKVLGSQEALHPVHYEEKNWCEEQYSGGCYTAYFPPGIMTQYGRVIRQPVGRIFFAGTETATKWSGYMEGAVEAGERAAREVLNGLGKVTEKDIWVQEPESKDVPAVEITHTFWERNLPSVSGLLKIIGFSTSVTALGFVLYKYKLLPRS
How it was run: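 MAO-A (400 ng) was pre-incubated with compound 10 min at room temperature in 100 mM HEPES pH 7.5, 5% glycerol, then MAO substrate (160 μM stock) added for 60 min. Luciferin detection reagent, 20 min, luminescence; % inhibition against no-compound control minus no-enzyme blank.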

IC50 [1] [nM]	IC50 [2] [µM]	IC50 [3] [µM]	SMILES
< 100	> 10	> 10	O=C(Nc1ccc([C@@H]2C[C@H]2NC2CCN(C3CC3)CC2)cc1)c1cccc(C(F)(F)F)c1 (relative stereo) [Example 111, N-(4-{trans-2-[(1-cyclopropylpiperidin-4-yl)amino]cyclopropyl}phenyl)-3-(trifluoromethyl)benzamide dihydrochloride]
< 100	9.7	3.8	O=C(Nc1ccc([C@@H]2C[C@H]2NCc2ccccc2)cc1)c1ccccc1 (relative stereo) [Example 1, N-{4-[trans-2-(benzylamino)cyclopropyl]phenyl}benzamide]
< 100	3.3	2.2	O=C(Nc1ccc([C@@H]2C[C@H]2NC2CCOCC2)cc1)c1ccc(-c2ccccc2)cc1 (relative stereo) [Example 61, N-{4-[trans-2-(tetrahydro-2H-pyran-4-ylamino)cyclopropyl]phenyl}biphenyl-4-carboxamide hydrochloride]
1900	> 10	> 10	O=C(Nc1ccc([C@@H]2C[C@H]2N(CC2CC2)CC2CC2)cc1)c1ccc(-c2ccccc2)cc1 (relative stereo) [Example 60, N-(4-{trans-2-[bis(cyclopropylmethyl)amino]cyclopropyl}phenyl)biphenyl-4-carboxamide hydrochloride]
< 100	> 10	> 10	O=C(Nc1ccc(C(=O)Nc2ccc([C@@H]3C[C@H]3NCC3CC3)cc2)cc1)c1ccccc1 (relative stereo) [Example 80, N-(4-{trans-2-[(cyclopropylmethyl)amino]cyclopropyl}phenyl)-4-[(phenylcarbonyl)amino]benzamide hydrochloride]
< 100	> 10	> 10	CN1CCC(CN[C@@H]2C[C@H]2c2ccc(NC(=O)c3cccc(C(F)(F)F)c3)cc2)CC1 (relative stereo) [Example 155, N-{4-[trans-2-{[(1-methylpiperidin-4-yl)methyl]amino}cyclopropyl]phenyl}-3-(trifluoromethyl)benzamide dihydrochloride]
< 100	> 10	> 10	CN1CCC(N[C@H]2C[C@@H]2c2ccc(NC(=O)c3cccc(C(F)(F)F)c3)cc2)CC1 (single isomer, unassigned) [Example 152, N-(4-{(1R,2S) or (1S,2R)-2-[(1-methylpiperidin-4-yl)amino]cyclopropyl}phenyl)-3-(trifluoromethyl)benzamide dihydrochloride]
< 100	> 10	> 10	Cc1ccc(C(=O)Nc2ccc([C@@H]3C[C@H]3NCC3CC3)cc2)cc1 (relative stereo) [Example 68, N-(4-{trans-2-[(cyclopropylmethyl)amino]cyclopropyl}phenyl)-4-methylbenzamide hydrochloride]
< 100	> 10	> 10	CC(C)(C)c1ccc(C(=O)Nc2ccc([C@@H]3C[C@H]3NCC3CC3)cc2)cc1 (relative stereo) [Example 70, 4-tert-butyl-N-(4-{trans-2-[(cyclopropylmethyl)amino]cyclopropyl}phenyl)benzamide hydrochloride]
< 100	> 10	5.1	O=C(Nc1ccc([C@@H]2C[C@H]2NCc2cn3ccsc3n2)cc1)c1cccc(C(F)(F)F)c1 (relative stereo) [Example 160, N-(4-{trans-2-[(imidazo[2,1-b][1,3]thiazol-6-ylmethyl)amino]cyclopropyl}phenyl)-3-(trifluoromethyl)benzamide dihydrochloride]
< 100	> 10	> 10	O=C(Nc1ccc([C@@H]2C[C@H]2NC2CCN(Cc3ccccc3)CC2)cc1)c1cccc(C(F)(F)F)c1 (relative stereo) [Example 74, N-(4-{trans-2-[(1-benzylpiperidin-4-yl)amino]cyclopropyl}phenyl)-3-(trifluoromethyl)benzamide dihydrochloride]
< 100	> 10	> 10	O=C(Nc1ccc([C@@H]2C[C@H]2NCC2CC2)cc1)c1ccc(-c2cnco2)cc1 (relative stereo) [Example 95, N-(4-{trans-2-[(cyclopropylmethyl)-amino]cyclopropyl}-phenyl)-4-(1,3-oxazol-5-yl)benzamide]
< 100	> 10	5.3	O=C(Nc1ccc([C@@H]2C[C@H]2NCC2CC2)cc1)c1n[nH]c2ccccc12 (relative stereo) [Example 128, N-(4-{trans-2-[(cyclopropyl-methyl)amino]cyclo-propyl}phenyl)-1H-indazole-3-carboxamide]
< 100	9	4.4	O=C(Nc1ccc([C@@H]2C[C@H]2NCc2ccccc2)cc1)c1cccc(Br)c1 (relative stereo) [Example 3, N-{4-[trans-2-(benzylamino)cyclopropyl]phenyl}-3-bromobenzamide]
< 100	> 10	> 10	O=C(Nc1ccc([C@@H]2C[C@H]2NCC2CC2)cc1)c1cnc(-c2ccccc2)o1 (relative stereo) [Example 104, N-(4-{trans-2-[(cyclopropylmethyl)-amino]cyclopropyl}-phenyl)-2-phenyl-1,3-oxazole-5-carboxamide]
< 100	> 10	> 10	CN1CCN(c2cccc(C(=O)Nc3ccc([C@@H]4C[C@H]4NCC4CC4)cc3)c2)CC1 (relative stereo) [Example 131, N-(4-{trans-2-[(cyclopropyl-methyl)amino]-cyclopropyl}-phenyl)-3-(4-methylpiperazin-l-yl)benzamide]
< 100	3.2	> 10	CC(N[C@@H]1C[C@H]1c1ccc(NC(=O)c2ccccc2)cc1)c1ccccc1 (relative stereo) [Example 19, N-(4-{trans-2-[(1-phenyl-ethyl)amino]-cyclopropyl}-phenyl)benzamide]
< 100	> 10	> 10	O=C(Nc1ccc([C@@H]2C[C@H]2NCC2CC2)cc1)c1ccc2nc(-c3ccco3)[nH]c2c1 (relative stereo) [Example 98, N-(4-{trans-2-[(cyclopropylmethyl)-amino]cyclopropyl}-phenyl)-2-(2-furyl)-1H-benzimidazole-6-carboxamide]
290	> 10	> 10	O=C(Nc1ccc([C@@H]2C[C@H]2NC2CCCCCCC2)cc1)c1ccc(-c2ccccc2)cc1 (relative stereo) [Example 45, N-{4-[trans-2-(cyclooctyl-amino)cyclo-propyl]phenyl}-biphenyl-4-carboxamide]
< 100	> 10	> 10	CS(=O)(=O)c1cccc(C(=O)Nc2ccc([C@@H]3C[C@H]3NCC3CC3)cc2)c1 (relative stereo) [Example 91, N-(4-{trans-2-[(cyclopropylmethyl)amino]cyclopropyl}-phenyl)-3-(methylsulfonyl)-benzamide]
200	> 10	> 10	O=C(Nc1ccc([C@@H]2C[C@H]2NCC2CC2)cc1)c1ccc(-c2nnn[nH]2)cc1 (relative stereo) [Example 102, N-(4-{trans-2-[(cyclopropylmethyl)-amino]cyclopropyl}-phenyl)-4-(1H-tetrazol-5-yl)benzamide]
< 100	4.9	9.1	O=C(Nc1ccc([C@@H]2C[C@H]2NCC2CC2)cc1)c1ccc2c(c1)CCCC2 (relative stereo) [Example 85, N-(4-{trans-2-[(cyclopropylmethyl)amino]cyclopropyl}-phenyl)-5,6,7,8-tetrahydronaphtha-lene-2-carboxamide]
